US20210221784A1, “COMPOUNDS AND COMPOSITIONS FOR THE TREATMENT OF PAIN” (Université de Strasbourg, priority 2018, published 2021)

Key:
[1] = target: T1, hNPFF2R (Homo sapiens, UniProt Q9Y5X5); experiment: Glo Sensor cAMP assay in HEK-293 expressing hNPFF2R; format: cell-based; settings: cells expressing hNPFF2R; forskolin 0.5 μM
T1 construct: expressed in transfected cells
Procedure: The functional characterization of the selected compounds was performed by Glo Sensor cAMP kinetic assay, a validated approach for measuring Gαi/s activation by GPCRs (DiRaddo et al., 2014; Gilissen et al., 2015). HEK-Glo cells expressing either NPFF1 or NPFF2 receptors were suspended (10^6 cells per mF) in physiological Hepes buffer (10 mM HEPES, 0.4 mM NaH2PO4, 137.5 mM NaCl, 1.25 mM MgCl2, 1.25 mM CaCl2, 6 mM KCl, 10 mM glucose and 1 mg/mF bovine serum albumin, pH 7.4) supplemented with 1 mM D-Fuciferine. After equilibration for 2 h at 25° C., luminescence levels were recorded in real time in 96-well plates using a Flexstation^R 3 (Molecular Devices, Sunnyvale Calif., USA). Non-specific effect of the different compounds was evaluated in HEK-Glo cells without any recombinant human RF-amide receptors. To test the agonist activity on NPFF1R and NPFF2R, compounds were injected 15 minutes before addition of forskolin (0.5 μM) and readings were pursued for 90 minutes. […] According to their preferential coupling to Gi/o proteins, the stimulation of NPFF1R and NPFF2R by agonists was monitored as a dose-dependent reduction in steady-state luminescence levels, reflecting the inhibition of forskolin-induced cAMP accumulation. […]

[2] = target: T2, hNPFFR2 (Homo sapiens, UniProt Q9Y5X5); experiment: Radioligand binding competition, membranes from CHO cells expressing hNPFFR2; settings: 0.015 nM [D-Tyr1[125I], N-MePhe3]-NPFF, 1 hr at 25° C., read-out: NPFF2-R Ki
T2 construct: expressed in transfected cells; membranes
Outline: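 CHO membranes (5–10 μg protein) stably expressing hNPFFR1 or hNPFFR2 incubated 1 h at 25 °C with 0.015 nM [D-Tyr1[125I], N-MePhe3]-NPFF in HEPES pH 7.4 with Ca2+, Mg2+, 0.1% BSA. Non-specific binding defined with 10 μM RFRP-3; bound radioactivity counted after GF/B filtration.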

[3] = test system: C57BF6/N male mice; experiment: Incisional pain model, Von Frey test; format: in vivo
[4] = test system: C57BF6/N male mice; experiment: Fentanyl-induced hyperalgesia, tail immersion test; format: in vivo; settings: for Hyperalgesia index (HI) d1 to d4: 1j 5 mg/kg p.o. or vehicle 35 min before fentanyl 4×60 μg/kg s.c.
[5] = test system: NPFFR1 KO and wild-type littermates; experiment: Morphine-induced hyperalgesia and tolerance in NPFF1R knockout mice and WT littermates; format: in vivo
[6] = test system: C57BF6/N male mice; experiment: Neuropathic pain model (chronic constriction injury), Von Frey test; format: in vivo
[7] = test system: C57BF6/N male mice; experiment: Morphine-induced hyperalgesia and tolerance, tail immersion test; format: in vivo

T2 sequence (Q9Y5X5 whole entry): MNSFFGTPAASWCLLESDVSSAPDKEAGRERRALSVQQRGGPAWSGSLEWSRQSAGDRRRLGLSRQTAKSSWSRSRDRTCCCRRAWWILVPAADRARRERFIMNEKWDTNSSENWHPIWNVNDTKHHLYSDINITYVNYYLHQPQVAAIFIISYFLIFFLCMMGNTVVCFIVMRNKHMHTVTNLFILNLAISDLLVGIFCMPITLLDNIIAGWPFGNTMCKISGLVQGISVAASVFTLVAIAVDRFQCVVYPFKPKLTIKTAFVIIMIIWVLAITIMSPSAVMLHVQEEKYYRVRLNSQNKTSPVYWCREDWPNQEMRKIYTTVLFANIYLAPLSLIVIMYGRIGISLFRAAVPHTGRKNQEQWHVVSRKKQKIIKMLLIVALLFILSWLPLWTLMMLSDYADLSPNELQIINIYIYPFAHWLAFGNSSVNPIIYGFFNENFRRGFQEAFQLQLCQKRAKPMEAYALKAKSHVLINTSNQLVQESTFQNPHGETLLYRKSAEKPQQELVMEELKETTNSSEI
T1 sequence (Q9Y5X5 whole entry): as above

`Nc1ccc(-c2cccc(Cl)c2Cl)c(N)n1` [Compound 1j, 3-(2,3-dichlorophenyl)pyridine-2,6-diamine] was tested, and the “effect of compound tested alone (agonist activity)” value [1] was “had no effect”, the Ki [2] was 2000 nM and the “mechanical allodynia after paw incision (allodynia index d1-d6), drug alone” value ([3]; morphine 2.5 mg/kg sc. alone or 1j 5 mg/kg po alone, FIG. 3B) was “slightly attenuated but not significantly the mechanical allodynia”. The “mechanical allodynia after paw incision (allodynia index d1-d6), pre-treatment before morphine” value ([3]; mouse, in vivo) was “significantly enhanced morphine effect at preventing the mechanical allodynia”, the “fentanyl hyperalgesia (hyperalgesia index d1 to d4)” value ([4]; 5 mg/kg sc. 20 min before fentanyl 4×60 μg/kg sc., FIG. 6B) was “significant anti-hyperalgesic effect” and the “development of hyperalgesia induced by fentanyl, dose effect” value ([4]; 0.2, 1 and 5 mg/kg, sc, 20 min before fentanyl, FIG. 1E, F) was “dose-dependently prevented”. The “analgesic effect of fentanyl (AUC)” value ([4]; 1j 5 mg/kg p.o. in Kolliphor EL or vehicle before fentanyl 4×60 μg/kg s.c., FIG. 1C) was 11.4±3, the ED50 ([4]; Mus musculus, sc, doses 0.2, 1 and 5 mg/kg, FIG. 1E, read-out: ED50, prevention of fentanyl-induced hyperalgesia) was roughly 0.5 mg/kg and the “effect of compound alone on basal nociceptive response” value ([4]; mice, tail immersion 48° C., FIG. 1A) was “did not have any effect”. For the same molecule, the “Hyperalgesia index (HI) d1 to d4” value ([4]; vehicle Kolliphor EL) was −1.8±1.2, the “Hyperalgesia index (HI) d1 to d4” value ([4]; vehicle tween 80) was 2.2±0.3 and the “morphine-induced hyperalgesia in NPFF1R KO mice” value ([5]; NPFF1R KO, 1j 5 mg/kg oral before daily morphine 10 mg/kg s.c., FIG. 5B, C) was “did not show any significant effect”. The “morphine-induced hyperalgesia in WT mice” value ([5]; WT littermates, 1j 5 mg/kg oral before daily morphine 10 mg/kg s.c., FIG. 5B, C) was “significantly attenuated this hyperalgesia”, the “morphine analgesia at day 8 in WT mice (tolerance)” value ([5]; WT littermates, morphine 5 mg/kg s.c., 1j 5 mg/kg oral, FIG. 5D) was “failed to restore morphine analgesia at day 8” and the “mechanical allodynia after CCI (allodynia index d11-d21), drug alone” value ([6]; morphine 3 mg/kg sc. alone or 1j 5 mg/kg p.o. alone, FIG. 4B) was “significantly attenuated the mechanical allodynia”. For the same molecule, the “mechanical allodynia after CCI (allodynia index d11-d21), pre-treatment before morphine” value ([6]; mouse, in vivo) was “significantly enhanced morphine analgesia effect on neuropathic pain”, the “Hyperalgesia index (HI) d1 to d7” value ([7]; daily morphine 10 mg/kg s.c., 1j 5 mg/kg oral or vehicle before morphine, FIG. 2B) was 0.1±3 and the “morphine analgesia at day 0, effect of co-administration” value ([7]; mouse, in vivo) was “not significantly modified”. For the same molecule, the “peak of analgesia at day 0” value ([7]; mouse, in vivo) was 19±0.8 and the “peak of analgesia at day 8” value ([7]; mouse, in vivo) was 14±0.9.
